Measurements: US10251395B2, “Substituted furano-/thienocycloalkylamino-2-pyrimidine derivatives and use thereof for controlling undesired plant growth” (Bayer CropScience Aktiengesellschaft, priority 2015, dated 2019)

How the values were obtained:
Abutilon theophrasti [1] = test: Pre-emergence herbicidal effect; type: in vivo; settings: Dosage 320 g/ha, scored visually after 3 weeks
Outline: (§1)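 Pre-emergence soil-surface application of compound as WP or EC in water (600 to 800 L/ha, 0.2% wetting agent) to freshly sown, soil-covered seeds in sandy loam. After 3 weeks under greenhouse conditions, percent activity rated by eye versus untreated plants, from 0% (no effect) to 100% (death).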

Amaranthus retroflexus [2] = test: Pre-emergence herbicidal effect; type: in vivo; settings: scored visually after 3 weeks
Outline: as §1

Echinochloa crus-galli [3] = test: Pre-emergence herbicidal effect; type: in vivo; settings: Dosage 320 g/ha, scored visually after 3 weeks
Outline: as §1

Lolium multiflorum = test: Pre-emergence herbicidal effect; type: in vivo; settings: Dosage 320 g/ha, scored visually after 3 weeks
Outline: as §1

Matricaria inodora = test: Pre-emergence herbicidal effect; type: in vivo; settings: scored visually after 3 weeks
Outline: as §1

Polygonum convolvulus [4] = test: Pre-emergence herbicidal effect; type: in vivo; settings: scored visually after 3 weeks
Outline: as §1

Setaria viridis = test: Pre-emergence herbicidal effect; type: in vivo; settings: scored visually after 3 weeks
Outline: as §1

Stellaria media [5] = test: Pre-emergence herbicidal effect; type: in vivo; settings: scored visually after 3 weeks
Outline: as §1

Veronica persica [6] = test: Pre-emergence herbicidal effect; type: in vivo; settings: scored visually after 3 weeks
Outline: as §1

Viola tricolor [7] = test: Pre-emergence herbicidal effect; type: in vivo; settings: scored visually after 3 weeks
Outline: as §1

Abutilon theophrasti [8] = test: Post-emergence herbicidal effect; type: in vivo; settings: assessed visually after about 3 weeks vs untreated controls
Outline: (§2)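 Seedlings at the one-leaf stage, about 2 to 3 weeks old, are sprayed on their foliage with compound suspended or emulsified in water containing 0.2% wetting agent. After roughly 3 weeks in the greenhouse, injury is estimated visually on a 0 to 100% scale.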

Echinochloa crus-galli [9] = test: Post-emergence herbicidal effect; type: in vivo; settings: 320 g/ha, assessed visually after about 3 weeks vs untreated controls
Outline: as §2

Polygonum convolvulus [10] = test: Post-emergence herbicidal effect; type: in vivo; settings: 320 g/ha, assessed visually after about 3 weeks vs untreated controls
Outline: as §2

Stellaria media [11] = test: Post-emergence herbicidal effect; type: in vivo; settings: 320 g/ha, assessed visually after about 3 weeks vs untreated controls
Outline: as §2

logP (HCOOH) = type: physicochemical; settings: HCOOH
Source text: Table 2 (physicochemical characterization of selected synthesis examples)

Amaranthus retroflexus [12] = test: Post-emergence herbicidal effect; type: in vivo; settings: assessed visually after about 3 weeks vs untreated controls
Outline: as §2

Veronica persica [13] = test: Post-emergence herbicidal effect; type: in vivo; settings: 320 g/ha, assessed visually after about 3 weeks vs untreated controls
Outline: as §2

Viola tricolor [14] = test: Post-emergence herbicidal effect; type: in vivo; settings: assessed visually after about 3 weeks vs untreated controls
Outline: as §2

Alopecurus myosuroides = test: Pre-emergence herbicidal effect; type: in vivo; settings: Dosage 320 g/ha, scored visually after 3 weeks
Outline: as §1

Compound | AMARE pre-emergence efficacy (herbicidal activity) (Amaranthus retroflexus [2]; Dosage 320 g/ha) | MATIN pre-emergence efficacy (herbicidal activity) (Matricaria inodora; Dosage 80 g/ha) | MATIN pre-emergence efficacy (herbicidal activity) (Matricaria inodora; Dosage 320 g/ha) | POLCO pre-emergence efficacy (herbicidal activity) (Polygonum convolvulus [4]; Dosage 320 g/ha) | SETVI pre-emergence efficacy (herbicidal activity) (Setaria viridis; Dosage 320 g/ha) | STEME pre-emergence efficacy (herbicidal activity) (Stellaria media [5]; Dosage 80 g/ha) | STEME pre-emergence efficacy (herbicidal activity) (Stellaria media [5]; Dosage 320 g/ha) | VERPE pre-emergence efficacy (herbicidal activity) (Veronica persica [6]; Dosage 320 g/ha) | VIOTR pre-emergence efficacy (herbicidal activity) (Viola tricolor [7]; Dosage 80 g/ha) | VIOTR pre-emergence efficacy (herbicidal activity) (Viola tricolor [7]; Dosage 320 g/ha) | post-emergence efficacy STEME (Stellaria media [11]) | logP (HCOOH) (logP (HCOOH)) | post-emergence efficacy AMARE (Amaranthus retroflexus [12]; 320 g/ha) | post-emergence efficacy VIOTR (Viola tricolor [14]; 320 g/ha) | post-emergence efficacy VIOTR (Viola tricolor [14]; 80 g/ha) | further results
Cc1cc2c(s1)CCC2Nc1ncc(S(C)(=O)=O)c(N)n1 (racemic) [compound 4] | 100% | 100% | 100% | 100% | 100% | 100% | 100% | 100% | 100% | 100% | 100% |  |  |  |  | ABUTH pre-emergence efficacy (herbicidal activity) (Abutilon theophrasti [1]): 100%; AMARE pre-emergence efficacy (herbicidal activity) (Amaranthus retroflexus [2]; Dosage 80 g/ha): 100%; ECHCG pre-emergence efficacy (herbicidal activity) (Echinochloa crus-galli [3]): 100%; LOLMU pre-emergence efficacy (herbicidal activity) (Lolium multiflorum): 100%; SETVI pre-emergence efficacy (herbicidal activity) (Setaria viridis; Dosage 80 g/ha): 100%; VERPE pre-emergence efficacy (herbicidal activity) (Veronica persica [6]; Dosage 80 g/ha): 100%; post-emergence efficacy ABUTH (Abutilon theophrasti [8]; 80 g/ha): 80%; post-emergence efficacy ABUTH (Abutilon theophrasti [8]; 320 g/ha): 90%; post-emergence efficacy ECHCG (Echinochloa crus-galli [9]): 100%; post-emergence efficacy POLCO (Polygonum convolvulus [10]): 100%
Cc1cc2c(o1)CC(C)(C)CC2Nc1ncc(S(C)(=O)=O)c(N)n1 (racemic) [compound 15] |  |  |  |  |  |  |  |  |  |  |  | oily; logP (HCOOH): 2.36; 1H NMR (CDCl3, 400 MHZ, δ in ppm): 1.05 (s, 3H, 3H of |  |  |  | 
Nc1nc(NC2CCCc3sc(Cl)cc32)ncc1C(F)(F)F (racemic) [compound 22] | 100% |  | 100% | 100% | 100% |  | 100% | 100% |  | 100% | 90% |  | 100% | 90% |  | ABUTH pre-emergence efficacy (herbicidal activity) (Abutilon theophrasti [1]): 80%; ECHCG pre-emergence efficacy (herbicidal activity) (Echinochloa crus-galli [3]): 100%; LOLMU pre-emergence efficacy (herbicidal activity) (Lolium multiflorum): 100%; post-emergence efficacy ABUTH (Abutilon theophrasti [8]; 320 g/ha): 90%; post-emergence efficacy ECHCG (Echinochloa crus-galli [9]): 90%; post-emergence efficacy POLCO (Polygonum convolvulus [10]): 90%; post-emergence efficacy VERPE (Veronica persica [13]): 90%
Nc1nc(NC2CCc3ccsc32)ncc1[N+](=O)[O-] (racemic) [compound 32] |  |  |  |  |  |  |  |  |  |  |  | solid; m.p.: 189.5° C.; logP (HCOOH): 1.53; |  |  |  | 
Cc1cc2c(s1)CCCC2Nc1nc(N)c([S+](C)[O-])c(C(F)(F)F)n1 (racemic) [compound 35] | 90% |  | 90% | 90% |  |  | 100% | 90% |  | 100% |  | oily; logP (HCOOH): 3.44; 1H NMR (CDCl3, 400 MHZ, δ in ppm): 1.85 (m, 3H, 3H of | 80% | 90% |  | 
Nc1nc(NC2CCCc3sccc32)ncc1S(=O)(=O)C1CC1 (racemic) [compound 36] | 100% | 100% | 100% |  |  | 100% | 100% | 100% | 100% | 100% | 80% | solid; m.p.: 243.3° C.; logP (HCOOH): 2.12; 1H NMR (CDCl3, 400 MHZ, δ in ppm): |  | 100% | 100% | AMARE pre-emergence efficacy (herbicidal activity) (Amaranthus retroflexus [2]; Dosage 80 g/ha): 100%; VERPE pre-emergence efficacy (herbicidal activity) (Veronica persica [6]; Dosage 80 g/ha): 90%; post-emergence efficacy VERPE (Veronica persica [13]): 80%
N#Cc1cnc(NC2CCc3cc(Cl)sc32)nc1N (racemic) [compound 49] | 100% |  |  |  |  | 90% | 100% | 70% | 100% | 100% |  | solid; logP (HCOOH): 2.32; |  | 90% | 80% | 
O=C1CCCc2nc(NC3CCCc4occc43)ncc21 (racemic) [compound 54] |  |  |  |  |  |  |  |  |  |  |  | oily; logP (HCOOH): 2.35; 1H NMR (CDCl3, 400 MHZ, δ in ppm): 1.80-2.00 (m, 4H, |  |  |  | 
Cc1sc(C)c2c1CCCC2Nc1ncc(C#N)c(N)n1 (racemic) [compound 56] |  |  |  |  |  |  |  |  |  |  |  | oily; logP (HCOOH): 2.66; |  |  |  | 
Cc1cc2c(s1)CCC2Nc1ncc(S(=O)(=O)C(C)C)c(N)n1 (racemic) [compound 63] |  | 100% | 100% | 100% | 100% | 100% | 100% |  | 100% | 100% |  | solid; logP (HCOOH): 2.40; 1H NMR (CDCl3, 400 MHZ, δ in ppm): 1.35 (d, 6H, 6H | 40% | 90% | 90% | ALOMY pre-emergence efficacy (herbicidal activity) (Alopecurus myosuroides): 100%; POLCO pre-emergence efficacy (herbicidal activity) (Polygonum convolvulus [4]; Dosage 80 g/ha): 20%; post-emergence efficacy AMARE (Amaranthus retroflexus [12]; 80 g/ha): 10%
